{"source": "patent US20040072230A1", "about": "“Human SORBS1 genetic variations contribute to insulin resistance, obesity, type 2 diabetes, and hypertension” (priority 2002, published 2004)", "test_system": "SH3P12/CAP/ponsin mRNA", "test": "SH3P12/CAP/ponsin mRNA level in differentiated 3T3-L1 adipocytes after BRL49653", "type": "cell-based, murine", "conditions": "BRL49653 4.5 μM for 16 hours added to well-differentiated 3T3-L1 adipocytes on day 6; 8.25 fold in the absence of BRL49653"}
{"smiles": "CN(CCOc1ccc(CC2SC(=O)NC2=O)cc1)c1ccccn1", "note": "(stereo not shown) [BRL49653, rosiglitazone]", "values": [{"measurement": "level of SH3P12/CAP/ponsin mRNA, fold higher than pre-induction levels", "value": 17.6, "unit": "fold"}]}
